Molecular target: T1, Porcine Intrinsic Factor (Sus scrofa, UniProt A0A8D1ENZ1)
T1 construct: purchased Sigma
Assay: Relative IF affinity of 5'O-VB12 derivatives (57CoVB12 competition, BSA-coated charcoal separation)
Details: inhibition of 57CoVB12 binding to porcine IF compared to unmodified VB12; 20 minutes at room temperature, pH 7.5
Method: Determination of the relative IF affinity of various 5'O-VB12 derivatives.
IF Buffer: BSA (VB12 and IF deficient) BSA (Sigma A-3902) was dissolved at 1 mg/ml in 0.1M potassium phosphate buffer pH 7.5.
^57 CoVB12 : ^57 Co stock (50 μl) (Kodak) was diluted into 50 ul of stock in 25 ml of IF buffer to give a solution of 1 ng ^57 CoVB12 /25 ml. 250 ng cold VB12 was added to 25 ml of hot ^57 CoVB12 solution to give a 10 ng/ml solution.
Porcine Intrinsic Factor: Porcine IF (Sigma) was dissolved in IF buffer at 200 Units/ml, and frozen in 500 ul lots (100 IU aliquots) until required.
BSA-coated charcoal: BSA (1%) was added to an equal volume of 5% charcoal solution of 0.1 M potassium phosphate buffer pH 7.5 and stirred gently for 30 minutes.
Ten fold up dilutions of VB12 or VB12 derivatives were prepared down to 1 ng/ml in IF buffer. An equal volume of diluted IF was added to each sample and incubated for 20 minutes at room temperature. An equal volume of the BSA-coated charcoal was added to each sample, which was mixed prior to centrifugation. Following centrifugation the supernatant and pellet of each sample were separated and ^57 CoVB12 determined by counting in a gamma counter. Data is represented as the % inhibition of ^57 CoVB2 binding when compared to unmodified VB12.

T1 sequence (A0A8D1ENZ1 29-425): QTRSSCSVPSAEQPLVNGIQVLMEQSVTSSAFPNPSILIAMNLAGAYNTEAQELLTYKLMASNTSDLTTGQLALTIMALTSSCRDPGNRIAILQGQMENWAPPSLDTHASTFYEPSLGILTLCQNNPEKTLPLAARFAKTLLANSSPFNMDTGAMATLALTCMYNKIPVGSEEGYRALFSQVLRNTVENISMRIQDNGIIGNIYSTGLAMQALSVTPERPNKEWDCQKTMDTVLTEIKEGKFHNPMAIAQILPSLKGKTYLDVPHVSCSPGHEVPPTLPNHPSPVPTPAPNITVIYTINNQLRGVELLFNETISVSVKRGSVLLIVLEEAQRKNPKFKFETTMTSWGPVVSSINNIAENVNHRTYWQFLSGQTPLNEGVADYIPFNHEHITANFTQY

% binding relative to vitamin B12 [%] | Substance
40 | 5'OH-(aminoethyl)-VB12 [aminoethyl-5'O-VB12]
29 | 5'OH-(adipylhydrazidyl)-VB12 [adiphylhydrazidyl-5'O-VB12]
35 | 5'OH-(dodecyl)-VB12 [dodecyl-5'O-VB12]
25 | VB12 -glycine acid [HO-Gly-5'O-VB12]
4.2 | 5'OH-(tetradecyl)-VB12 [tetradecyl-5'O-VB12]

The remaining lines, values behind:

Substance | % binding relative to vitamin B12 [%]
5'OH-(hexadecyl)-VB12 [hexadecy-5'O-VB12] | 0.78
5'OH-(aminobutyl)-VB12 [aminobutyl-5'O-VB12] | 27
5'OH-(aminododecanyl)-VB12 [aminododecanyl-5'O-VB12] | 31
5'OH-(succinylhydrazidyl)-VB12 [succinylhydrazidyl-5'O-VB12] | 37
5'OH-(aminohexyl)-VB12 [aminohexyl-5'O-VB12] | 25
5'OH-(hexyl)-VB12 [hexyl-5'O-VB12] | 49
5'OH-(octadecyl)-VB12 [octadecyl-5'O-VB12] | 0.57

— patent US6150341A, “Vitamin B12 derivatives and methods for their preparation” (Biotch Australia Pty Limited, priority 1998, dated 2000)
